Test system: 485176-168-R4-J1-PDC spheroids with HUVEC/MSC, viability
Experiment: Anticancer human tumor 485176-168-R4-J1-PDC patient-derived pancreatic adenocarcinoma cell line growth inhibition [GQUAD]
Conditions: for IC50: curve of first compound; for viability, T/C: stronger effect = lower value
Summary of the method: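 Viability of tumor cells grown as complex spheroids with endothelial and stromal cells, exposed to drug combinations. Top concentration at or near clinical Cmax (else 10 microM), diluted in half-log increments.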

[1] = second compound 0.0316 µM, first compound 0.0316 µM
[2] = second compound 0.0316 µM, first compound 0.1 µM
[3] = second compound 0.0316 µM, first compound 0.316 µM
[4] = second compound 0.0316 µM, first compound 1 µM
[5] = second compound 0.0316 µM, first compound 3.16 µM
[6] = second compound 0.0316 µM, first compound 10 µM
[7] = second compound 0.1 µM, first compound 0.0316 µM
[8] = second compound 0.1 µM, first compound 0.1 µM
[9] = second compound 0.1 µM, first compound 0.316 µM
[10] = second compound 0.1 µM, first compound 1 µM
[11] = second compound 0.1 µM, first compound 3.16 µM
[12] = second compound 0.1 µM, first compound 10 µM
[13] = second compound 0.316 µM, first compound 0.0316 µM
[14] = second compound 0.316 µM, first compound 0.1 µM
[15] = second compound 0.316 µM, first compound 0.316 µM
[16] = second compound 0.316 µM, first compound 1 µM
[17] = second compound 0.316 µM, first compound 3.16 µM
[18] = second compound 0.316 µM, first compound 10 µM
[19] = second compound 1 µM, first compound 0.0316 µM
[20] = second compound 1 µM, first compound 0.1 µM
[21] = second compound 1 µM, first compound 0.316 µM
[22] = second compound 1 µM, first compound 1 µM
[23] = second compound 1 µM, first compound 3.16 µM
[24] = second compound 1 µM, first compound 10 µM
[25] = second compound 3.16 µM, first compound 0.0316 µM
[26] = second compound 3.16 µM, first compound 0.1 µM
[27] = second compound 3.16 µM, first compound 0.316 µM
[28] = second compound 3.16 µM, first compound 1 µM
[29] = second compound 3.16 µM, first compound 3.16 µM
[30] = second compound 3.16 µM, first compound 10 µM
[31] = second compound 10 µM, first compound 0.0316 µM
[32] = second compound 10 µM, first compound 0.1 µM
[33] = second compound 10 µM, first compound 0.316 µM
[34] = second compound 10 µM, first compound 1 µM
[35] = second compound 10 µM, first compound 3.16 µM
[36] = second compound 10 µM, first compound 10 µM
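Note: spheroids exposed to compounds for seven days before readout.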
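Throughout, for viability, T/C: percent viability relative to DMSO vehicle control wells as 100%.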

Work on `O=C(c1cc(Cc2n[nH]c(=O)c3ccccc23)ccc1F)N1CCN(C(=O)C2CC2)CC1` + Cc1[nH]c2ccc(F)cc2c1-c1nc2c3cccnc3c3ncccc3c2[nH]1 yielded an IC50 (second compound 0.0316 µM) of over 10 µM, an IC50 (second compound 0.1 µM) of over 10 µM and an IC50 (second compound 0.316 µM) of over 10 µM. For the same compound, the IC50 (second compound 1 µM) was over 10 µM, the IC50 (second compound 3.16 µM) was over 10 µM and the IC50 (second compound 10 µM) was over 10 µM. The viability, T/C [1] was 99.9%, the viability, T/C [2] was 75.3% and the viability, T/C [3] was 85.6%. It also gave a viability, T/C [4] of 80.5%, a viability, T/C [5] of 91.2% and a viability, T/C [6] of 69.9%. For the same compound, the viability, T/C [7] was 82.6%, the viability, T/C [8] was 93.9% and the viability, T/C [9] was 90.3%. For the same compound, the viability, T/C [10] was 106%, the viability, T/C [11] was 83.2% and the viability, T/C [12] was 74.9%. It also gave a viability, T/C [13] of 93.8%, a viability, T/C [14] of 90.5% and a viability, T/C [15] of 94.6%. The viability, T/C [16] was 95.6%, the viability, T/C [17] was 77.8% and the viability, T/C [18] was 77.3%. The viability, T/C [19] was 92.8%, the viability, T/C [20] was 78.9% and the viability, T/C [21] was 88.1%. For the same compound, the viability, T/C [22] was 86.4%, the viability, T/C [23] was 101% and the viability, T/C [24] was 68.8%. The viability, T/C [25] was 91.4%, the viability, T/C [26] was 89.2% and the viability, T/C [27] was 85.3%. The viability, T/C [28] was 77.6%, the viability, T/C [29] was 88.1% and the viability, T/C [30] was 62.5%. It also gave a viability, T/C [31] of 78.5%, a viability, T/C [32] of 85.3% and a viability, T/C [33] of 70.4%. The viability, T/C [34] was 77.1%, the viability, T/C [35] was 80% and the viability, T/C [36] was 57.5%.
`COc1ncnc(C2CC2)c1-c1ncc2cnn(Cc3ccc(-c4nc(C(F)(F)F)cn4C(C)C)cc3)c2n1` + CN(C)c1ccc(Nc2c3ccc(NC(=O)CCN4CCCC4)cc3nc3cc(NC(=O)CCN4CCCC4)ccc23)cc1 was tested, and the IC50 (second compound 0.0316 µM) was over 10 µM, the IC50 (second compound 0.1 µM) was over 10 µM and the IC50 (second compound 0.316 µM) was over 10 µM. It also gave an IC50 (second compound 1 µM) of over 10 µM, an IC50 (second compound 3.16 µM) of over 10 µM and an IC50 (second compound 10 µM) of over 10 µM. For the same compound, the viability, T/C [1] was 86.9%, the viability, T/C [2] was 83.5% and the viability, T/C [3] was 109%. It also gave a viability, T/C [4] of 107%, a viability, T/C [5] of 97.8% and a viability, T/C [6] of 94.3%. It also gave a viability, T/C [7] of 123%, a viability, T/C [8] of 95.2% and a viability, T/C [9] of 106%. The viability, T/C [10] was 93.3%, the viability, T/C [11] was 104% and the viability, T/C [12] was 89.5%. For the same compound, the viability, T/C [13] was 96.3%, the viability, T/C [14] was 95.5% and the viability, T/C [15] was 103%. The viability, T/C [16] was 96%, the viability, T/C [17] was 87.4% and the viability, T/C [18] was 98%. It also gave a viability, T/C [19] of 88.1%, a viability, T/C [20] of 97.1% and a viability, T/C [21] of 105%. It also gave a viability, T/C [22] of 74.3%, a viability, T/C [23] of 99.9% and a viability, T/C [24] of 83.3%. The viability, T/C [25] was 94.3%, the viability, T/C [26] was 96.8% and the viability, T/C [27] was 87.9%. It also gave a viability, T/C [28] of 102%, a viability, T/C [29] of 92.5% and a viability, T/C [30] of 88.1%. For the same compound, the viability, T/C [31] was 90.5%, the viability, T/C [32] was 81.2% and the viability, T/C [33] was 86.8%. For the same compound, the viability, T/C [34] was 86.8%, the viability, T/C [35] was 72.4% and the viability, T/C [36] was 70.2%.
